PMC11819603, “Development of a reliable, sensitive, and convenient assay for the discovery of new eIF5A hypusination inhibitors” (PLOS ONE, 2025)

Assays:
Format in all cases: biochemical
[1] = target: T1, DHPS (Homo sapiens, UniProt P49366); test: Hyp'Assay: cell-free eIF5A hypusination in 96-well plates (recombinant eIF5A, DHPS, DOHH; anti-hypusine antibody Hpu24), substance present in the DHPS step; conditions: for hypusination signal, Mean (quantification from Figure 3B): control 100,0
T1 construct: host or cells: E. coli BL21 (DE3)
T1 sequence (P49366 1-369): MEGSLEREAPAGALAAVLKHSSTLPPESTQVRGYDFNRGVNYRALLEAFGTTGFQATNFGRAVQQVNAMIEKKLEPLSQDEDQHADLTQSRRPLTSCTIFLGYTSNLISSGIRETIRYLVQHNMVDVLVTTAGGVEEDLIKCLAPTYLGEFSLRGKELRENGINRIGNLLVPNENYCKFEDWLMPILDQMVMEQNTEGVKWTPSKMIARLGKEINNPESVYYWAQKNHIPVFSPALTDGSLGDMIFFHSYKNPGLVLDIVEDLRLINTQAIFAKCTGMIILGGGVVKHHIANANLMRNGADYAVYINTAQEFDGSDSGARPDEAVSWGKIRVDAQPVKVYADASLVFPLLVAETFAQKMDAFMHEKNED
Protocol: The principle of the Hyp’Assay (Fig 2A) is to perform eIF5A hypusination reaction in 96-well plates, allow eIF5A to adsorb to the plate, incubate with an anti-hypusine antibody and a secondary antibody conjugated to HRP and reveal hypusination using TMB as a substrate.
(§1) […] Then 10 μL containing 1 μg of DOHH with 10 μM Fe^2+ (H8FeN2O8S2^. 6H2O) were added. After 1 h proteins were analyzed by Western Blot using antibodies toward DHPS, DOHH, Hypusine, and eIF5A.
(§2) The cell-free reaction described in 4.4 is performed in triplicates in a 96-wells plate (MaxiSorp, ThermoFisher) in the presence of 3 μg of eIF5A, 2 μg of DHPS, and 2 μg of DOHH by well. The reaction product, hypusinated eIF5A, is adsorbed onto the plate overnight at 4°C. The plate is washed (100 μL/well) thrice with PBS-T (PBS– 0.05% Tween20), then saturated with 1% non-fat dry milk in PBS-T for 2 h at room temperature. The plate is washed thrice with PBS-T and incubated overnight at 4°C with the anti-hypusine antibody (1:2000 in saturation buffer, 50 μL/well). The next day and after 5 washes with PBS-T, HRP-coupled anti-rabbit secondary antibody diluted 1:5000 in saturation buffer (50 μL/well) is added for 2 h at room temperature.

[2] = target: T2, DOHH (Homo sapiens, UniProt Q9BU89); test: Hyp'Assay, substance added after the deoxyhypusination reaction (DOHH step); conditions: for hypusination signal, Mean (quantification from Figure 3C): control 100,0
T2 construct: pelB leader (N); host or cells: E. coli BL21 (DE3)
T2 sequence (Q9BU89 1-302): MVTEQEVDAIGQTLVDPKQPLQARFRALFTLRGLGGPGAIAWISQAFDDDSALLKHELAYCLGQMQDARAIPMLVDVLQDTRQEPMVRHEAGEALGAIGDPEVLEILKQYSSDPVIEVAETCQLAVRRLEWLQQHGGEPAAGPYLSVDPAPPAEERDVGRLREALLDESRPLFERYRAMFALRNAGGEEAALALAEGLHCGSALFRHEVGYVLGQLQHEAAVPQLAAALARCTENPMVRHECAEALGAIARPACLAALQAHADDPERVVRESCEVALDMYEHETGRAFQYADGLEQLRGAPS
Protocol: We then tested the ability of DOHH inhibitors to inhibit eIF5A hypusination using the Hyp’Assay. During the Hyp’Assay, DOHH inhibitors were added after the deoxyhypusination reaction.
To address this issue, we compared the ability of GC7 to inhibit DHPS or DOHH by adding GC7 during the first step of the Hyp’Assay; when DHPS mediates the deoxyhypusination reaction (Fig 2A), or only during the second step, when DOHH hydroxylate deoxyhypusinated eIF5A. […] When finding new hypusination inhibitors adding them during the first or the second step of the Hyp’Assay will allow us to determine if the inhibition affects DHPS or DOHH. Another way to discriminate between DHPS or DOHH inhibitors would be to use Hpu98, an antibody that recognized both hypusinated and deoxyhypusinated eIF5A, instead of Hpu24, which is specific for hypusinated eIF5A [18]. […] We performed a new Hyp’Assay by omitting DOHH in the reaction mix and using the Hpu98 antibody. First, we performed a dose response experiment with spermidine at pH: 8.0 and 9.0 (Fig 3E). […] We also tested the ability of GC7 (Fig 3F) and CPX or EDTA (Fig 3G) to inhibit DHPS.
as §1, §2

[3] = target: T1, DHPS; test: Hyp'Assay without DOHH: deoxyhypusination of eIF5A revealed with Hpu98 antibody; conditions: 5 μM spermidine; CTRL 100,0; inhibitor concentration not given
Text: To address this issue, we compared the ability of GC7 to inhibit DHPS or DOHH by adding GC7 during the first step of the Hyp’Assay; when DHPS mediates the deoxyhypusination reaction (Fig 2A), or only during the second step, when DOHH hydroxylate deoxyhypusinated eIF5A. […] This confirms the specificity of GC7 towards DHPS. When finding new hypusination inhibitors adding them during the first or the second step of the Hyp’Assay will allow us to determine if the inhibition affects DHPS or DOHH. Another way to discriminate between DHPS or DOHH inhibitors would be to use Hpu98, an antibody that recognized both hypusinated and deoxyhypusinated eIF5A, instead of Hpu24, which is specific for hypusinated eIF5A [18]. […] We performed a new Hyp’Assay by omitting DOHH in the reaction mix and using the Hpu98 antibody. First, we performed a dose response experiment with spermidine at pH: 8.0 and 9.0 (Fig 3E). The Hyp’Assay allows the detection of deoxyhypusinated eIF5A in a spermidine-dependent manner. Under these conditions, deoxyhypusination was equally efficient at both pH tested. […] We also tested the ability of GC7 (Fig 3F) and CPX or EDTA (Fig 3G) to inhibit DHPS. […] This provided us with another method to distinguish between DHPS and DOHH inhibitors.
as §2

[4] = concentration 1 (no unit on page; Fig 3C dose-response 0 to 100 μM)
[5] = concentration 10 (no unit on page; Fig 3C dose-response 0 to 100 μM)
[6] = concentration 100 (no unit on page; Fig 3C dose-response 0 to 100 μM)

For `CCNCCCNCCCNCCCNCC` [BENSPM, N1,N11-diethylnorspermine], the decrease in hypusination ([1]; at 100 μM) was 12%, the inhibition of hypusination ([1]; at 1 mM) was 43% and the “hypusination signal, Mean (quantification from Figure 3B)” value ([1]; concentration 1 (no unit on page; Fig 3B dose-response 0 to 1 mM)) was 97,3. For the same compound, the “hypusination signal, Mean (quantification from Figure 3B)” value ([1]; concentration 10 (no unit on page; Fig 3B dose-response 0 to 1 mM)) was 101,9, the “hypusination signal, Mean (quantification from Figure 3B)” value ([1]; concentration 100 (no unit on page; Fig 3B dose-response 0 to 1 mM)) was 88,5 and the “hypusination signal, Mean (quantification from Figure 3B)” value ([1]; concentration 1000 (no unit on page; Fig 3B dose-response 0 to 1 mM)) was 42,9.
In the case of `Cc1cc(C2CCCCC2)n(O)c(=O)c1` [CPX, ciclopirox], the “hypusination signal, Mean (quantification from Figure 3C)” value [2, 4] is reported as 97,78, the “hypusination signal, Mean (quantification from Figure 3C)” value [2, 5] is reported as 85,18 and the “hypusination signal, Mean (quantification from Figure 3C)” value [2, 6] is reported as 55,02. For the same compound, the maximal inhibition ([2]; dose-response 0 to 100 μM) was 50% and the “Relative deoxyhypusination of eIF5A, Mean (quantification from Figure 3F, 3G)” value [3] was 101,2 a.u.
With `CC(=O)N(O)CCCCCNC(=O)CCC(=O)N(O)CCCCCNC(=O)CCC(=O)N(O)CCCCCN` [DFX, deferoxamine] the “hypusination signal, Mean (quantification from Figure 3C)” value [2, 4] was 28,29, the “hypusination signal, Mean (quantification from Figure 3C)” value [2, 5] was 58,42 and the “hypusination signal, Mean (quantification from Figure 3C)” value [2, 6] was 34,21.
With `C[S+](C)[O-]` [DMSO] the inhibition of hypusination ([1]; 10% DMSO of the total reaction mixture) was 33% and the “effect on hypusination of eIF5A” value ([1]; standard concentrations of DMSO (less than 10%)) was “not affected”.
In the case of `O=C(O)CN(CCN(CC(=O)O)CC(=O)O)CC(=O)O` [EDTA], the maximal inhibition ([2]; at 100 μM EDTA) is reported as 80% and the “Relative deoxyhypusination of eIF5A, Mean (quantification from Figure 3F, 3G)” value [3] is reported as 97,63 a.u.
